For orientation: IC50 means the concentration at which inhibition is half-maximal. The term Ki denotes a measure of affinity in units of concentration, obtained from inhibition or displacement. What is called Cmax is the peak of the concentration-time curve.

These results are taken from patent US11478476B2 (CONTERA PHARMA APS, priority 2014, dated 2022).

The conditions of series [1]: cited from earlier work.
For series [2], the target named is T1, human recombinant 5-HT1A receptors (Homo sapiens, UniProt P08908).
T1 sequence (P08908 1-422): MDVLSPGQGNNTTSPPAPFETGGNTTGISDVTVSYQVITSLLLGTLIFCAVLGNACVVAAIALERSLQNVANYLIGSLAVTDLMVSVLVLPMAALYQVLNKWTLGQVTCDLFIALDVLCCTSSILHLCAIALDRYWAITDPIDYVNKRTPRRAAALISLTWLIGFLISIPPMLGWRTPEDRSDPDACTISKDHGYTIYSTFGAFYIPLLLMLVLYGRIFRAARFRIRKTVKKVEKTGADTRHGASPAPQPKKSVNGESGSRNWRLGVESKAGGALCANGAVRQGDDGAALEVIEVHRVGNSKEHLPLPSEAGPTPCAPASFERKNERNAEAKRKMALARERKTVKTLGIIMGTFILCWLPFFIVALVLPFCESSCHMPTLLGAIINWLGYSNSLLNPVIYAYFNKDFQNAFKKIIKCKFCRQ
To be noted: cited from earlier work; for Ki: nM printed, table head has no unit.

In series [3] the target is T2, human recombinant dopamine D4 receptor (Homo sapiens, UniProt P21917).
T2 sequence (P21917 1-419): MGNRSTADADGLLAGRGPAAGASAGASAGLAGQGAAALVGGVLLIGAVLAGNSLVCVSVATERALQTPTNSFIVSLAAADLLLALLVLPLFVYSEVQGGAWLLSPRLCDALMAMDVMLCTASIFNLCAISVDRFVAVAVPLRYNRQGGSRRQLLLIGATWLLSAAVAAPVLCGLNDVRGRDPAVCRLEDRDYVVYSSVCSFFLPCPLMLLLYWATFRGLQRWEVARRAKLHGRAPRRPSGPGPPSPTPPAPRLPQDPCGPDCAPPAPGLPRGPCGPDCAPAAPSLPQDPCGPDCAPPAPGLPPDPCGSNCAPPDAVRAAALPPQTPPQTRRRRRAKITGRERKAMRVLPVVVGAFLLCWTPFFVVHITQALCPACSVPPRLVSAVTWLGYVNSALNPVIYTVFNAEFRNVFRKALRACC
As to conditions: read-out: D4 affinity Ki ± SEM; cited from earlier work.

In series [4] the target is T3, human recombinant dopamine D3 receptor (Homo sapiens, UniProt P35462). As to conditions: read-out: D3 affinity Ki ± SEM; cited from earlier work.
For series [5], the target named is T3, human recombinant dopamine D3 receptor. As to conditions: saturating concentrations of dopamine; read-out: D3 efficacy IC50 ± SEM; cited from earlier work.
Series [6] concerns the target T2, human recombinant dopamine D4 receptor. As to conditions: saturating concentrations of dopamine; read-out: D4 efficacy IC50 ± SEM; cited from earlier work.
Series [7] addresses T4, human recombinant dopamine D2 receptor (Homo sapiens, UniProt P14416). To be noted: read-out: D2 affinity Ki ± SEM; cited from earlier work.
Series [8] deals with T4, human recombinant dopamine D2 receptor. To be noted: saturating concentrations of dopamine; read-out: D2 efficacy IC50 ± SEM; cited from earlier work.
For series [9] the following is noted: oral administration of buspirone, human volunteers; analyte = label (6-OH-Busp: total, both enantiomers); cited from earlier work.
The conditions of series [10]: after administration of radiolabeled buspirone; cited from earlier work.
The test system of series [11] is Parkinson's disease patients. To be noted: cited from earlier work.
Series [12] relates to D2 receptors. As to conditions: oral buspirone; cited from earlier work.
The test system of series [13] is dopamine D3 receptors. As to conditions: oral buspirone at therapeutically relevant doses; cited from earlier work.
For series [14], the system named is L-DOPA induced dyskinesia (LID) model rats. As to the kind of experiment: L-DOPA induced AIMs in 6-OHDA lesioned LID model rats. It is filed as in vivo, rat. The text has this: Animals: 80 experimentally-naïve, male, 9 weeks old Sprague-Dawley rats at body weight of 200 to 250 g arrive at the laboratory at least 1 week prior to behavioural testing. Rats were housed in groups of n=2/cage. Animals had ad libitum access to standard rodent chow and water. Animal housing and testing rooms were maintained under controlled environmental conditions and were within close proximity of each other. Animal housing rooms were on a 12-hour light-dark cycle with lights on at 6:00 AM and maintained at 70° F./21° C. (range: 68-72° F./20-22° C.) with a humidity range of 20-40%. Testing rooms were maintained at 68-72° F. with a humidity range of 20-40%. DA (dopamine)-denervating lesions were performed by unilateral injection of 6-OHDA in the ascending nigrostriatal pathway. Rats were anesthetized with pentobarbital sodium 40 mg/kg (i.p.) and positioned in a stereotactic frame. 6-OHDA was injected into the right ascending DA bundle at the following coordinates relative to bregma and dural surface: A (anterior-posterior), L (lateral), V (dorsoventral): A −1.8, L −2.0, V −8.6, tooth bar 0.0.
The neurotoxin injections were performed at a rate of 1 ul/min, and the injection cannula is left in place for an additional 2-3 min thereafter. Two weeks after surgery, contralateral full body turns were recorded over 30 min, following s.c. injection of 0.5 mg/kg of apomorphine sulfate. The animals were placed in plastic Perspex bowls (30 cm in diameter) and the rotational behavior (360° turns) is recorded by an automated rotometer for […] after the s.c. injection of 0.5 mg/kg of apomorphine sulfate. Apomorphine (0.5 mg/kg, s.c.) induced contralateral rotation in unilateral 6-OHDA lesioned rats. 73 rats with rotations ≥180/30 min, indicating >90% DA lesion in nigrostriatal pathway, were chosen as the PD model rats for chronic L-DOPA treatment.
Starting one day after the apomorphine-induced rotation test, 6-OHDA-lesioned rats were treated with daily L-DOPA (Sigma-Aldrich, Germany) (8 mg/kg plus benserazide 15 mg/kg, s.c.) for 21 days. Rats were placed individually in transparent plastic cages without bedding material and scored every 20 min following the injection of L-DOPA for the entire time course of dyskinesias (120 min). The AIMs were classified into four subtypes according to their topographic distributions such as Locomotive, Forelimb, Axial and Orolingual behaviors. The severity of each AIM subtype was assessed by using scores from 0 to 4 (1: occasional, i.e. present less than 50% of the time; 2: frequent, i.e. present more than 50% of the time; 3: continuous, but interrupted by strong sensory stimuli; 4: continuous, not interrupted by strong sensory stimuli). In this study, rats with an AIMs≥28 were considered highly dyskinetic, while rats with an AIMs<28 either low or none-dyskinetic.
After chronic L-DOPA treatment on PD rats for 21 days, 42 LID model rats (348 g˜501 g, 15 weeks old) were successfully created with the criteria of total AIM scores (Lo+Li+AX+OI)≥28 points.
AIMs ratings were performed by an investigator who was kept unaware of the pharmacological treatment administered to each rat (experimentally blinded). In order to quantify the severity of the AIMs, rats were observed individually in their standard cages every 20th minute at 20-180 min after an injection of I-DOPA. The AIM's were classified into four subtypes:
Each of the four subtypes are scored on a severity scale from 0 to 4, where 0=absent, 1=present during less than half of the observation time, 2=present for more than half of the observation time, 3=present all the time but suppressible by external stimuli, and 4=present all the time and not suppressible by external stimuli. Axial, limb and orolingual AIMs are found to be modulated in a similar way by all the tested substances.
Rats were tested for AIMs using the sum of locomotive (LO) oraxial (AX), limb (LI), and orolingual (OL) AIM scores per testing session for statistical analyses. […]

Series [15] concerns PD model rats. As to the kind of experiment: Stepping test (adjusting steps) in PD model rats. It counts as in vivo, rat. To be noted: 10 mg/kg, sc; PD model rats. The procedure: The stepping test (Schallert et al., 1992) was performed as described by Kirik et al., 2001 with little modifications. Briefly, the rat was held by the experimenter fixing its hindlimbs with one hand and the forelimb not to be monitored with the other, while the unrestrained forepaw was touching the table. The number of adjusting steps was counted, while the rat was moved sideways along the table surface (90 cm in 5 s), in the forehand and backhand direction, for both forelimbs, and the average of the steps in the two directions is considered.
30 male PD model rats were used for adjusting steps test with the following groups: • 1. Vehicle 1+Vehicle 2 (n=7) • 2. Vehicle 1+L-DOPA (10 mg/kg, sc) (n=7) • 3. 6-OH-Busp (3 mg/kg, sc)+Vehicle 2 (n=8) • 4. 6-OH-Busp (3 mg/kg, sc)+L-DOPA (10 mg/kg, sc)
The PD rats were handled for 3 consecutive days. Vehicle 1 or 6-OH-Busp will s.c. dosed 61 min before adjusting steps test. Vehicle 2 or L-DOPA/Benserazide dosed 60 min before adjusting steps test. On testing day, the rats were held by both hind limbs and the untested forepaw. The test forepaw was placed on a flat surface and dragged in the forehand direction for 90 cm distance over 5 s. The number of adjusting steps was counted for both paws in the backhand and forehand directions of movement. […] Data were analyzed and graphed by Graph Pad Prism 6.

T3 sequence (P35462 whole entry): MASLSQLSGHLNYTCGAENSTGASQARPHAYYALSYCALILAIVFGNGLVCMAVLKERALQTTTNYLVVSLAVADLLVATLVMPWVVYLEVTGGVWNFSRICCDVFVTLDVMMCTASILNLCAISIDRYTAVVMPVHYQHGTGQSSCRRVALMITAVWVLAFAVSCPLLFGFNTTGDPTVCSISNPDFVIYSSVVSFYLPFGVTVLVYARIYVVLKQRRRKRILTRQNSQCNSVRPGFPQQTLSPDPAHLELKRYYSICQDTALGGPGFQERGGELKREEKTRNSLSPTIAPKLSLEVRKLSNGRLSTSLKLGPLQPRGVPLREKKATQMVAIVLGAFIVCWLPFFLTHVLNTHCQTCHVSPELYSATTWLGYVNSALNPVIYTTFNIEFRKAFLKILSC
T4 sequence (P14416 whole entry): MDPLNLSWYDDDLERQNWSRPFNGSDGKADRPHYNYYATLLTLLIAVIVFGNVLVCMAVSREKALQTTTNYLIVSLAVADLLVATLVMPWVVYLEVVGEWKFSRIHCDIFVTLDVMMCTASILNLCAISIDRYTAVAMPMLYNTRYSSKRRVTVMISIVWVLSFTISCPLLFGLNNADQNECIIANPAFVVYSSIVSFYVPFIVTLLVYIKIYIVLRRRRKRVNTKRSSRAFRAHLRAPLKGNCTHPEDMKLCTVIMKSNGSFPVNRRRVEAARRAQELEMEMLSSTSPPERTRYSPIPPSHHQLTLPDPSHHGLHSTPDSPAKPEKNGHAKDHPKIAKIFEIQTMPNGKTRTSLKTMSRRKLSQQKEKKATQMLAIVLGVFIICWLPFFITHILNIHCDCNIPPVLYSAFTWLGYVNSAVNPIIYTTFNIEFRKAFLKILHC

On to `c1cnc(N2CCNCC2)nc1` [1-PP, 1-(2-pyrimidinyl)-piperazine], for which the “exposure (area under the concentration-time profile) of metabolite relative to parent compound” value in series [1] (oral dosing of buspirone in rats) is listed as 49 fold. Moreover, in series [2], the half-inhibitory concentration (IC50) is greater than 1000 nM.
In the case of `O=C1CC2(CCC(O)C2)CC(=O)N1CCCCN1CCN(c2ncccn2)CC1` (stereo not drawn) [3-OH-Busp], in series [2], the half-maximal inhibitory concentration (IC50) is 652 nM and the Ki is 326 nM.
As to `O=C1CC2(CCCC2)CC(=O)N1CCCCN1CCN(c2ncc(O)cn2)CC1` [5-OH-Busp], the Ki in [3] is 107 ± 44.8 nM; in [4] it was 261 ± 46 nM; in [2] it was 464 nM; in series [7], 4010 ± 792 nM. Besides, the half-maximal inhibitory concentration (IC50) in series [2] is 928 nM; in [5] it was 930 ± 460 nM; in [6] it was 1400 ± 820 nM; in series [8] it was 2600 ± 1300 nM.
With `O=C1CC2(CCCC2)CC(=O)N1CCCCN1CCN(c2ncccn2)CC1` [Buspirone, 8-[4-(4-pyrimidin-2-ylpiperazin-1-yl)butyl]-8-azaspiro[4.5]decane-7,9-dione, reference compound], in series [3], the Ki was 29.2 ± 11.3 nM. For the same molecule, the plasma half-life in [1] (rats) is 54 ± 24 min. Besides, in series [9], the AUC0-INF is listed as 3.93 ngxh/ml and the highest concentration (Cmax) is reported as 1.39 ng/mL. Further, the “unchanged buspirone as share of total radioactivity in human plasma” value in [10] is “less than 2%”. Besides, the Ki in [4] is 98 ± 16 nM. Also, in series [11] (100 mg/day), the disability ratings entry was “significant worsening” and the dyskinesia entry is recorded as “reduced”. For the same molecule, in [11] (10-60 mg/day), the “effects on Parkinson's disease or dyskinesia” value was “did not have any effects”. In addition, the IC50 in [5] is 440 ± 180 nM. Further, the IC50 in [6] was 350 ± 60 nM. The “in vivo blockade of D2 receptors (PET)” value in [12] was “did not cause blockade”. Besides, the “in vivo blockade of dopamine D3 receptors (PET)” value in [13] is “blocks”. Further, the “total AIMs of LID rats at time points” value in [14] (Example XII, 1 mg/kg s.c., 50, 70, 90, 110, 130, 150, 170 and 190 min, vs vehicle) is “significantly attenuated”. In series [14] (Example XII, buspirone 1 mg/kg s.c., 6-OH-Busp 0.3, 1 and 3 mg/kg s.c., vs vehicle), the “AUC of total AIMs from 10 min to 190 min” value is listed as “decreased”.
Take `CN1CC(=O)N=C1NC(=O)Nc1cccc(Cl)c1` [Fenobam, 1-(3-chlorophenyl)-3-(3-methyl-5-oxo-4H-imidazol-2-yl)urea, reference compound]: the “AIMs of LID rats at any time points” value in series [14] (Example XIV, 30 mg/kg, s.c. as printed) is reported as “did not have significant effects”.
In the case of `N[C@@H](Cc1ccc(O)c(O)c1)C(=O)O` [L-DOPA, 3,4-dihydroxyphenylalanine, reference compound], the “number of adjusting steps” value in series [15] was “increased”.
Take `CN(C)CCc1c[nH]c2ccc(C[C@H]3COC(=O)N3)cc12` [Zolmitriptan, (S)-4-({3-[2-(dimethylamino)ethyl]-1H-indol-5-yl}methyl)-1,3-oxazolidin-2-one, reference compound]: the “AIMs at any time points” value in series [14] (Example XIII, 10 mg/kg s.c.) is reported as “did not have any effects”.
